Data from ChEMBL document CHEMBL1201862, “PubChem BioAssay data set” (2004).
The source made the active and inactive calls.

Legend:
[1] = biological target: Muscarinic acetylcholine receptor M5 (Homo sapiens, UniProt P08912); test: (§1) Discovery of novel allosteric modulators of the M1 muscarinic receptor: Agonist NMS competition at M5. [Related pubchem assays: 1488 (Discovery of novel allosteric modulators of the M1 muscarinic receptor: Agonist Confirmation Assay), 626 (Discovery of Novel Allosteric Modulators of the M1 Muscarinic Receptor: Agonist Primary Screen)]; format: functional
[2] = biological target: Muscarinic acetylcholine receptor M2 (Homo sapiens, UniProt P08172); test: Discovery of novel allosteric modulators of the M1 muscarinic receptor: Agonist NMS competition at M2. [Related pubchem assays: 626 (Discovery of Novel Allosteric Modulators of the M1 Muscarinic Receptor: Agonist Primary Screen), 1488 (Discovery of novel allosteric modulators of the M1 muscarinic receptor: Agonist Confirmation Assay)]; format: functional
[3] = biological target: Muscarinic acetylcholine receptor M4 (Rattus norvegicus, UniProt P08485); test: Discovery of novel allosteric modulators of the M1 muscarinic receptor: Agonist NMS competition at M4. [Related pubchem assays: 626, 1488, 1741 ]; format: functional
[4] = biological target: Muscarinic acetylcholine receptor M1 (Rattus norvegicus, UniProt P08482); test: Discovery of novel allosteric modulators of the M1 muscarinic receptor: Agonist NMS binding at M1. [Related pubchem assays: 626 ]
[5] = biological target: Muscarinic acetylcholine receptor M3 (Homo sapiens, UniProt P20309); test: as §1, with “M3.” for “M5.”; format: functional
Protein Rev = Protein Rev (Human immunodeficiency virus type 1 group M subtype B (isolate WMJ22)(HIV-1), UniProt P05866); test: HIV-1 Rev-RRE RNA binding disruptors, dose response, biochemical, protein-RNA interaction (AID 842); set-up: species or system Human immunodeficiency virus 1
[6] = polyadenylation inhibitors in yeast reporter, dose response, luminescence, S. cerevisiae SKY197-pL101 (AID 2525); format: functional, cell-based
[7] = biological target: Glyceraldehyde-3-phosphate dehydrogenase (Homo sapiens, UniProt P04406)
[8] = biological target: Heat shock cognate 71 kDa protein (Homo sapiens, UniProt P11142); test: In Vitro Hsc70 Dose Response Fluorescence Polarization Assay. [Related pubchem assays: 1072 ]
[9] = biological target: T1, Short transient receptor potential channel 4 (Mus musculus, UniProt Q9QUQ5); test: mouse TRPC4 channel inhibitors, dose response, cell-based, HEK293 TRPC4/mu-opioid, Fluo-4 calcium (AID 434942); format: functional;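 note: potency of inhibitors blocking the TRPC4 calcium response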
T1 sequence (Q9QUQ5 whole entry): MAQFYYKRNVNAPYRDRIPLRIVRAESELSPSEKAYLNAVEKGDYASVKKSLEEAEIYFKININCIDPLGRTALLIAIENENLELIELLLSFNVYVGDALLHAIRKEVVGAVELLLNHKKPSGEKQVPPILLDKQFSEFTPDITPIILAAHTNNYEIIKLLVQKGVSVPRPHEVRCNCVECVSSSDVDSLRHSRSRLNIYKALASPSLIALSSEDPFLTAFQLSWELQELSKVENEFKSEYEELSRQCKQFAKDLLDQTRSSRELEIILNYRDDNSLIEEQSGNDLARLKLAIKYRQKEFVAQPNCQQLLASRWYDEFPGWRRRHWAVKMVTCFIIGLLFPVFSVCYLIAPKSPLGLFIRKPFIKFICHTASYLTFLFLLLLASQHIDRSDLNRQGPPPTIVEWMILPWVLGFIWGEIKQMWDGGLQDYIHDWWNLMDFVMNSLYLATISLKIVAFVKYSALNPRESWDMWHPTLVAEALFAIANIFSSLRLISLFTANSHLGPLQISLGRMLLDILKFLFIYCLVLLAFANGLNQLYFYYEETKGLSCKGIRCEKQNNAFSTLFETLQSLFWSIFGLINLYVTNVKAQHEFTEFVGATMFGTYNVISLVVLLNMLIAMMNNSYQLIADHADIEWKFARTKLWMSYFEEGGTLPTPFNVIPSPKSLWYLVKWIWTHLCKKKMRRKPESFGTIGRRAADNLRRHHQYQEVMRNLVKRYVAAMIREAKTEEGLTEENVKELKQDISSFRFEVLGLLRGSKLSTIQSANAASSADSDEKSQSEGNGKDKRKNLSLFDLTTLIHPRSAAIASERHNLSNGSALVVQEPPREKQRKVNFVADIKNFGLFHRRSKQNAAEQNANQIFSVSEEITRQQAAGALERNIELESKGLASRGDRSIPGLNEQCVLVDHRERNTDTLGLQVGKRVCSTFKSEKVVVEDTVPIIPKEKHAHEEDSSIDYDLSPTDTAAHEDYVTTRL

[10] = biological target: G-protein coupled receptor 35 (Homo sapiens, UniProt Q9HC97); test: GPR35 antagonists blocking zaprinast-driven arrestin recruitment, primary screen, imaging, U2OS, beta-arrestin-GFP, zaprinast agonist (AID 2058); format: functional;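 note: antagonist potency meaning inhibition of agonist-induced arrestin redistribution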
[11] = Counterscreen for IDE inhibitors: Luminescence-based cell-based high throughput dose response assay to identify compounds that are cytotoxic to HEK cells. [Related pubchem assays: 434962 (Primary screen (IDE inhibitors in singlicate)), 449730 (Counterscreen (Cytotoxicity in triplicate)), 435028 (Confirmation (IDE inhibitors in triplicate)) …; format: functional; details: HEK293
Insulin-degrading enzyme = biological target: T2, Insulin-degrading enzyme (Homo sapiens, UniProt P14735); test: Dose Response: Fluorescence polarization-based cell-based high throughput dose response assay for inhibitors of insulin-degrading enzyme (IDE). [Related pubchem assays: 434962 (Primary screen (IDE inhibitors in singlicate)), 449730 (Counterscreen (Cytotoxicity in triplicate)), 435028 (Confirmation (IDE inhibitors in triplicate)), 434984 (Summary …; format: functional
T2 sequence (P14735 whole entry): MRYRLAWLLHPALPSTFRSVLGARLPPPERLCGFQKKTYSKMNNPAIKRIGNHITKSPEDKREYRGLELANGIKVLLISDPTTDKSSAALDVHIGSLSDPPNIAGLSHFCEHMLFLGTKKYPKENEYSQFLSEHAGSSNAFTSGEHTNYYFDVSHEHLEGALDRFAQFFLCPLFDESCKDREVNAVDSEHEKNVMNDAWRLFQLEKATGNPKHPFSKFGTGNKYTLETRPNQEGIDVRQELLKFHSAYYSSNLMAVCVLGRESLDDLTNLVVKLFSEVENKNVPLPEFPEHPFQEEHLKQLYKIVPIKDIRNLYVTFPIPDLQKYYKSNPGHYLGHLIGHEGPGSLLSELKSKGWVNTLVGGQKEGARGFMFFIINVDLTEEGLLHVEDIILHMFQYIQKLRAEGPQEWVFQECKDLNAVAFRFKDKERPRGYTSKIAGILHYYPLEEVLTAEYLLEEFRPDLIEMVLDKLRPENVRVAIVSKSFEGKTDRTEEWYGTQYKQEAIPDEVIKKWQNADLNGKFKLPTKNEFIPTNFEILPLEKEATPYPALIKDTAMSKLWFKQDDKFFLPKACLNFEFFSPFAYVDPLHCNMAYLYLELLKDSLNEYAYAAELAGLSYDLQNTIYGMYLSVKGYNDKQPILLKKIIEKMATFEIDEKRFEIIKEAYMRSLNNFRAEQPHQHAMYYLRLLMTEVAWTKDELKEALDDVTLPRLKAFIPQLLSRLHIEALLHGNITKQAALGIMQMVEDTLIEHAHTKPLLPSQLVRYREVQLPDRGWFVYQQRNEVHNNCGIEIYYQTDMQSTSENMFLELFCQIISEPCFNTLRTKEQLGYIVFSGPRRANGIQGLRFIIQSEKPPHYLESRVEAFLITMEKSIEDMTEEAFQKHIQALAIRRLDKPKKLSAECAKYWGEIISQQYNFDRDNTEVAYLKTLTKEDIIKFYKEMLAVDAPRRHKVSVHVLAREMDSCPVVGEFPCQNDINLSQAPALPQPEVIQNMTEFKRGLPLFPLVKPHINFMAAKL

Streptococcus [12] = test: Group A Streptococcus viability loss, dose response, counter-screen for streptokinase expression inhibitor project, luminescence, BacTiterGlo (AID 1915); format: functional, organism-based;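 note: potency for reduction of bacterial viability or growth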
Streptokinase A = biological target: T3, Streptokinase A (Streptococcus pyogenes serotype M1, UniProt P10520); test: S. pyogenes streptokinase expression inhibitors, potency, dose response, plasminogen activation absorbance, OD405 (AID 1914); format: functional, Streptococcus pyogenes M1 GAS;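 note: secreted streptokinase activity via plasminogen activation per viability signal from cell pellet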
T3 sequence (P10520 whole entry): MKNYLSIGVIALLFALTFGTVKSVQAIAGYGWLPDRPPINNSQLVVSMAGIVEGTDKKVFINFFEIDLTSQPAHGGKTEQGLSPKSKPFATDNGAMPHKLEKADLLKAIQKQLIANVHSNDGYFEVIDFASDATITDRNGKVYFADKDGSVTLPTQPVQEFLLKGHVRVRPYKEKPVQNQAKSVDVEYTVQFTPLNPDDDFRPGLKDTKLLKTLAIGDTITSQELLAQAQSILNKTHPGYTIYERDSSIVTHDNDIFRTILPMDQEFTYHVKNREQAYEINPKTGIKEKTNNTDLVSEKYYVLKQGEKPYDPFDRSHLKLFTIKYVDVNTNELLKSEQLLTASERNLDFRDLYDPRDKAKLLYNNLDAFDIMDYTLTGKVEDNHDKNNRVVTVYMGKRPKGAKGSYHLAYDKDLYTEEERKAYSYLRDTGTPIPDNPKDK

Streptococcus [13] = test: Luminescence Microorganism-Based Dose Response Follow up to Identify Compounds Cytotoxic to Streptococcus. [Related pubchem assays: 1677 (Project Summary), 1915, 1914, 1902 (Retest at Dose), 1900 (Counter Screen), 1662 (Primary HTS)]; format: functional, organism-based
[14] = tested on: Streptococcus sp. 'group A'; test: growth inhibition of control SK(-) GAS strain, dose response, counter-screen for streptokinase expression inhibitor project, luminescence, kanamycin, BacTiterGlo, confirmation (AID 1900); format: functional, organism-based
Aspartyl aminopeptidase = Aspartyl aminopeptidase (Plasmodium falciparum 3D7, UniProt Q8I2J3)
Procathepsin L = Procathepsin L (Homo sapiens, UniProt P07711)
[15] = biological target: Alkaline phosphatase, placental type (Homo sapiens, UniProt P05187); test: PLAP enzyme inhibitors, confirmation, biochemical, luminescence (AID 1512); format: functional
[16] = biological target: Voltage-dependent T-type calcium channel subunit alpha-1H (Homo sapiens, UniProt O95180); format: functional;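 note: channel activity triggered by adding a high calcium stimulation buffer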
[17] = biological target: Melanin-concentrating hormone receptor 1 (Homo sapiens, UniProt Q99705); test: Fluorescence-based counterscreen for antagonists of the G-protein coupled receptor 7 (GPR7): cell-based high throughput dose response assay to identify antagonists of the melanin-concentrating hormone receptor 1 (MCHR1).; format: functional
Melanin-concentrating hormone receptor 1, sequence (Q99705 whole entry): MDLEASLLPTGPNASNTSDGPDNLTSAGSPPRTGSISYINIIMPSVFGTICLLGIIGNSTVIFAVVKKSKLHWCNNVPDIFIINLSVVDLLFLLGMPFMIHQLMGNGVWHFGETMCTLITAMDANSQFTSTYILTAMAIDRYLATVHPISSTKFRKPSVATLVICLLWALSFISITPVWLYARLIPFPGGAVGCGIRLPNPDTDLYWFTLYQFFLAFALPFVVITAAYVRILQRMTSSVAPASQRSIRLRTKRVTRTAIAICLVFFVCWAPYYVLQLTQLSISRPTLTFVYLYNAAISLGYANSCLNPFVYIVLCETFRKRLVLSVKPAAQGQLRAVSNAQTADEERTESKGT

Muscarinic acetylcholine receptor M5, sequence (P08912 whole entry): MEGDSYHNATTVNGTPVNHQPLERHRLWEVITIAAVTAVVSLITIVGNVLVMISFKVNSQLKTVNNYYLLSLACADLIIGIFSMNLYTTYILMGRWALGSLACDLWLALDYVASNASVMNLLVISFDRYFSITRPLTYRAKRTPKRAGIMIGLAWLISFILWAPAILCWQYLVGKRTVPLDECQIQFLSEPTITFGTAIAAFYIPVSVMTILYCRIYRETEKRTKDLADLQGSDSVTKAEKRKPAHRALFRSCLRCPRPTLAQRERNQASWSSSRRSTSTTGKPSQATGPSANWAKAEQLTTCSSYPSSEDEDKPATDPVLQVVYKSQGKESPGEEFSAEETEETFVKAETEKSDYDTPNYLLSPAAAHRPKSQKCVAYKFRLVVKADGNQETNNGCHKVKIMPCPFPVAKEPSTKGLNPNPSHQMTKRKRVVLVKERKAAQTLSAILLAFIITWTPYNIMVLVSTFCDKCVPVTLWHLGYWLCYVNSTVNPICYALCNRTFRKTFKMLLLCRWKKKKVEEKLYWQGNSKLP
Protein Rev, sequence (P05866 whole entry): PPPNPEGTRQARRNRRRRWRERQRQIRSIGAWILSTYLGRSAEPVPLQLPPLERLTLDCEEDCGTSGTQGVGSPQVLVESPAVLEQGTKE
Voltage-dependent T-type calcium channel subunit alpha-1H, sequence (O95180 whole entry): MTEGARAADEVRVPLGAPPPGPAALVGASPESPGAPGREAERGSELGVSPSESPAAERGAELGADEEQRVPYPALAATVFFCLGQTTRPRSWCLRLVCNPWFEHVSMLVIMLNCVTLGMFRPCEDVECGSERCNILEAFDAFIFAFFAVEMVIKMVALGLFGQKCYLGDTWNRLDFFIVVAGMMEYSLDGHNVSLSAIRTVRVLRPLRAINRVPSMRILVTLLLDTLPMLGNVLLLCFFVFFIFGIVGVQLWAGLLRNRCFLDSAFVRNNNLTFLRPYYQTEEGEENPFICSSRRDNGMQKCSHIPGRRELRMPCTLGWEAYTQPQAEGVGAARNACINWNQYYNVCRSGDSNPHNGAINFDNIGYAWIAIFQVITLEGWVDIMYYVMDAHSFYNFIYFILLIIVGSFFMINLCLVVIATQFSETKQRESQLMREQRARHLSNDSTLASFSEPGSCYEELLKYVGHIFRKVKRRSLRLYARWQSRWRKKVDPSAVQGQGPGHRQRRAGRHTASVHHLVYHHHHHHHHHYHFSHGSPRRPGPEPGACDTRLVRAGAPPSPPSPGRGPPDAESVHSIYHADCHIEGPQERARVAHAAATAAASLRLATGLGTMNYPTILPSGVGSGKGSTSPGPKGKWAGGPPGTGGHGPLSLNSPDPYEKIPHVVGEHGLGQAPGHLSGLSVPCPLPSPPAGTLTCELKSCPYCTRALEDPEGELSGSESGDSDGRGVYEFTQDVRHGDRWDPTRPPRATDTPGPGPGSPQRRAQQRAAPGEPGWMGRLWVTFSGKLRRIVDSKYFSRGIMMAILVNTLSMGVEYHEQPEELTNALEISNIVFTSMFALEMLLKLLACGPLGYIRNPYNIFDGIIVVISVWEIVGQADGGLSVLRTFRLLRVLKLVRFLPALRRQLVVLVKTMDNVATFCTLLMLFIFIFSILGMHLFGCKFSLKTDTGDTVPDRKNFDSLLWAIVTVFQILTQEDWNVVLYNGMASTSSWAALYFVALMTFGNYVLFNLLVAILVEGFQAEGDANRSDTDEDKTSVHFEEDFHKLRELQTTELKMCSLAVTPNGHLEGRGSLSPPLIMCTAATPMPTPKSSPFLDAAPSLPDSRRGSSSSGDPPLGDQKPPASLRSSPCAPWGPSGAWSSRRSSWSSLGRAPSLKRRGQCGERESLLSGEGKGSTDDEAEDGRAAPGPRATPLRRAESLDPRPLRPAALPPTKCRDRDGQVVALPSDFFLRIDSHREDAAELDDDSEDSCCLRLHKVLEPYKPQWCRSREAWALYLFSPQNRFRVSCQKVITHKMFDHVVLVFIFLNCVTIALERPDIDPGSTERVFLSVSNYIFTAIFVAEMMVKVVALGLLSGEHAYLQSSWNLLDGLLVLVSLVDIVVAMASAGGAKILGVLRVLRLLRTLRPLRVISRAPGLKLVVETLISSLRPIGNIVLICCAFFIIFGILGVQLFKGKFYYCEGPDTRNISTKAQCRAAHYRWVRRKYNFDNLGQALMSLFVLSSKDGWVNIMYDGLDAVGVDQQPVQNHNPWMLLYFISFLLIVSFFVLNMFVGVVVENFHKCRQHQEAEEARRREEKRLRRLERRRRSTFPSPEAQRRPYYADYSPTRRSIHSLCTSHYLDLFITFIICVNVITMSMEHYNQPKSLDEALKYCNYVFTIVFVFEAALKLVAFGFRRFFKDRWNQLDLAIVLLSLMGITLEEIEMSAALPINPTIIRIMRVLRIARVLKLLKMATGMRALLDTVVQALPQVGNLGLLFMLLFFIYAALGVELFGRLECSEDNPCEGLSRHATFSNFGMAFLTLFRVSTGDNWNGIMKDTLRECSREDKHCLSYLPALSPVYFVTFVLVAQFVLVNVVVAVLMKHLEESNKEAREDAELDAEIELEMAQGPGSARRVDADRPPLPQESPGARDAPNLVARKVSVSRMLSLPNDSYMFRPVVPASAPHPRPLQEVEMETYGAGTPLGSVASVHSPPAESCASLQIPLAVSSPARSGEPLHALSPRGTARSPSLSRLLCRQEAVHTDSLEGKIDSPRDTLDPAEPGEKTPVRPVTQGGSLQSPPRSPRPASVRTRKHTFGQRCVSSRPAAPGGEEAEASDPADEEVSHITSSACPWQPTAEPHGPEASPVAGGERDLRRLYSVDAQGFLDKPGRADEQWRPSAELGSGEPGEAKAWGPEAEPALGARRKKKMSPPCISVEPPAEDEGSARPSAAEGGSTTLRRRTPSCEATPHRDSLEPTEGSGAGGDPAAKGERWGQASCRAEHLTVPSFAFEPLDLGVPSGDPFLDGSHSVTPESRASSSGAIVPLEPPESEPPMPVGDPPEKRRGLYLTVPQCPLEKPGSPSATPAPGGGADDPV
Glyceraldehyde-3-phosphate dehydrogenase, sequence (P04406 whole entry): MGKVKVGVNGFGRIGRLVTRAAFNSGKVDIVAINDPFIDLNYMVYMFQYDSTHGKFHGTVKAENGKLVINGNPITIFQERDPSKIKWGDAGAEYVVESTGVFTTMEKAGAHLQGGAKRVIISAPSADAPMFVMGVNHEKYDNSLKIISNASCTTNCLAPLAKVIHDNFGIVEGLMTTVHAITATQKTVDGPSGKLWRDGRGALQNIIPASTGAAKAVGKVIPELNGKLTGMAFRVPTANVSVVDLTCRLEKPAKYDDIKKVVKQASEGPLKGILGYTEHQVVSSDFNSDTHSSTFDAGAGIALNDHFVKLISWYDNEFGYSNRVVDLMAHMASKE
Aspartyl aminopeptidase, sequence (Q8I2J3 whole entry): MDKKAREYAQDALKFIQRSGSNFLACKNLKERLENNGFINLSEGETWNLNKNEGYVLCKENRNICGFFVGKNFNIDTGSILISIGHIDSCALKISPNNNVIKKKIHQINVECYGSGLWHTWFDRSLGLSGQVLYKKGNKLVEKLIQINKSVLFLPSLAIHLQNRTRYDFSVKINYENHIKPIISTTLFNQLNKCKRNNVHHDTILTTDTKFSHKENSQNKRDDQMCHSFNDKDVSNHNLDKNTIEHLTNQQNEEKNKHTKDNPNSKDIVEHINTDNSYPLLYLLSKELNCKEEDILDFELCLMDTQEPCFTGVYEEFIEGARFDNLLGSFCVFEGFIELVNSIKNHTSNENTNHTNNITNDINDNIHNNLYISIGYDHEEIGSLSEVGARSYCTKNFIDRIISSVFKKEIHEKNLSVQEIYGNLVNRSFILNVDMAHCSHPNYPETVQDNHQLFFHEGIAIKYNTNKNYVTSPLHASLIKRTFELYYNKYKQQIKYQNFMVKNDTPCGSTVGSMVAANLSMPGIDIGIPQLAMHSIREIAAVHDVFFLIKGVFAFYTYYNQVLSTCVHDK
Heat shock cognate 71 kDa protein, sequence (P11142 whole entry): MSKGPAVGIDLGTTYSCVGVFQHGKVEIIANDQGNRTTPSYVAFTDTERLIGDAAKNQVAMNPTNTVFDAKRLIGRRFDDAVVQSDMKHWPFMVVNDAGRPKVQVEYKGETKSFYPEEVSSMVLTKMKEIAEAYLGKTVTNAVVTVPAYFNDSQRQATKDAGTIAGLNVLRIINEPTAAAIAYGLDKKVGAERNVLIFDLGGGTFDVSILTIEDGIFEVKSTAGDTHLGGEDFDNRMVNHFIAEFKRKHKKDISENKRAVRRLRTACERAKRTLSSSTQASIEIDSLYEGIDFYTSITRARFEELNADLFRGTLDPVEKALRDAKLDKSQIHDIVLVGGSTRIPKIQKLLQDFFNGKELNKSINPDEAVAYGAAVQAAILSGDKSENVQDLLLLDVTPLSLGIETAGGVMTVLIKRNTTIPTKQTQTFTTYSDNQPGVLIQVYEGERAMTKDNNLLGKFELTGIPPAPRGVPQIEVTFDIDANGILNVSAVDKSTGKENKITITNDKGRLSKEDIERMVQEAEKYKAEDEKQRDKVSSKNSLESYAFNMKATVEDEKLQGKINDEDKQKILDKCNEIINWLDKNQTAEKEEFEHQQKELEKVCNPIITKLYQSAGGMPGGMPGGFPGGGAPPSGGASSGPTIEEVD

CCOC(=O)N1CCC(NCCNC(=O)c2ccccc2)CC1
EC50 [1]: 64.6 µM (inconclusive)
EC50 [2]: 28 µM (inconclusive)
EC50 [3]: 21.4 µM (inconclusive)
EC50 [4]: 36.5 µM (inconclusive)
EC50 [5]: 12.4 µM (inconclusive)

CC1=NOC(=O)/C1=C/c1ccc(N(C)C)cc1
IC50 (Protein Rev): 2.86 µM (active)

O=C(O)CN1C(=O)/C(=C\c2ccc(N3CCCCC3)o2)SC1=S
EC50 [6]: 12.4 µM (active)

Nc1ncnc2c1ncn2[C@@H]1O[C@H](COP(=O)(O)OP(=O)(O)O)[C@@H](O)[C@H]1O [ADENOSINE DIPHOSPHATE]
IC50 [7]: > 5 µM (inconclusive)
IC50 [8]: 0.28 µM (active)

COc1ccc2nc(C)cc(NCc3ccc(F)cc3)c2c1
EC50 [9]: 5.96 µM (active)
IC50 [10]: 2.6 µM (active)

Cn1c2ccccc2c2cc(/C=C(\NC(=O)c3ccccc3)C(=O)NCC(=O)O)ccc21
IC50 [11]: > 55.7 µM (not active)
IC50 (Insulin-degrading enzyme): 42.5 µM (not active)

COCc1cc(Sc2c(Cl)cccc2Cl)nc(-c2ccccc2)n1
EC50 (Streptococcus [12]): > 150 µM (not active)
EC50 (Streptokinase A): 9.31 µM (active)
EC50 (Streptococcus [13]): > 500 µM (not active)
EC50 [14]: 8.22 µM (active)

O=C(NCc1cccnc1)NC1(C(F)(F)F)Oc2ccc(Cl)cc2O1 (configuration not stated)
IC50 (Aspartyl aminopeptidase): 1.58 µM (active)
IC50 (Procathepsin L): > 59.6 µM (not active)
IC50 [15]: 8.54 µM (active)

C=CCOc1c(Br)cc(CNc2nccs2)cc1OC
EC50 [16]: 6.12 µM (active)

Cc1ccccc1CN1C[C@@H]2C[C@@H](c3c[nH]nc3-c3ccc(F)cc3)N3CCC[C@@]23C1=O
IC50 [17]: 25.4 µM (not active)
